The compounds below were run against T1, human GPR119 (Homo sapiens, UniProt Q8TDV5) (assay: AlphaScreen cAMP assay in MIN6 cells stably transfected with human GPR119). Details: Min-6/hGPR119 cells, 45 min at room temperature.
T1 construct: expression vector for human GPR119 cDNA (Acc. No. NP_848566); expressed in transfected cells; Min-6/hGPR119
T1 sequence (Q8TDV5 1-335): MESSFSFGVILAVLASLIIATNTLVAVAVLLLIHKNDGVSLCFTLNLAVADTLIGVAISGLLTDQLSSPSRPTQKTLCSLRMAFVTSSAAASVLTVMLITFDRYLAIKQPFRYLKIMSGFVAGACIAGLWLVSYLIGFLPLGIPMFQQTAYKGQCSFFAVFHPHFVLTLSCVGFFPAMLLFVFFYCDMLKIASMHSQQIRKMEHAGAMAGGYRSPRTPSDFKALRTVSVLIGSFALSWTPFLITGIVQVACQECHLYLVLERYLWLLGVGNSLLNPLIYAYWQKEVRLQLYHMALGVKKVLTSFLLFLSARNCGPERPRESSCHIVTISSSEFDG
Assay type: cell-based
Outline: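 cAMP accumulation quantified by AlphaScreen after 45 min compound stimulation at about 20 °C. Stimulation buffer: pH 7.4 HEPES saline with 0.5 mM IBMX, 0.1% BSA, 1% DMSO final. Cells: MIN6 stably transfected with human GPR119, 10000/well, cultured 24 h beforehand.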

Compound | EC50 [nM]
CC(C)(C)OC(=O)N1CCC(N(C(=O)c2cnc(-c3ccc(C(=O)N4CC(F)(F)C4)cc3F)nc2)C2CC2)CC1 [Example 147, 4-(Cyclopropyl-{2-[4-(3,3-difluoro-azetidine-1-carbonyl)-2-fluoro-phenyl]-pyrimidine-5-carbonyl}-amino)-piperidine-1-carboxylic acid tert-butyl ester] | 159
CN(CC1CCOC1)C(=O)c1ccc(-c2ncc(C(=O)N(C3CC3)C3CCN(C(=O)OC(C)(C)C)CC3)cn2)c(F)c1 (stereo not drawn) [Example 148, 4-[Cyclopropyl-(2-{2-fluoro-4-[methyl-(tetrahydro-furan-3-ylmethyl)-carbamoyl]-phenyl}-pyrimidine-5-carbonyl)-amino]-piperidine-1-carboxylic acid tert-butyl ester] | 395
COCC1CCCCN1C(=O)c1ccc(-c2ncc(C(=O)N(C3CC3)C3CCN(C(=O)OC(C)(C)C)CC3)cn2)cc1F (stereo not drawn) [Example 149, 4-(Cyclopropyl-{2-[3-fluoro-4-(2-methoxymethyl-piperidine-1-carbonyl)-phenyl]-pyrimidine-5-carbonyl}-amino)-piperidine-1-carboxylic acid tert-butyl ester] | 297
CC(O)c1cccc(NC(=O)c2ccc(-c3ncc(C(=O)N(C4CC4)C4CCN(C(=O)OC(C)(C)C)CC4)cn3)cc2F)c1 (stereo not drawn) [Example 150, 4-[Cyclopropyl-(2-{3-fluoro-4-[3-(1-hydroxy-ethyl)-phenylcarbamoyl]-phenyl}-pyrimidine-5-carbonyl)-amino]-piperidine-1-carboxylic acid tert-butyl ester] | 238
CC(C)(C)OC(=O)N1CCC(N(C(=O)c2cnc(-c3ccc(C(=O)NCc4cocn4)c(F)c3)nc2)C2CC2)CC1 [Example 151, 4-[Cyclopropyl-(2-{3-fluoro-4-[(oxazol-4-ylmethyl)-carbamoyl]-phenyl}-pyrimidine-5-carbonyl)-amino]-piperidine-1-carboxylic acid tert-butyl ester] | 123
CC(C)(C)OC(=O)N1CCC(N(C(=O)c2cnc(-c3ccc(C(=O)NCC4CCCCO4)c(F)c3)nc2)C2CC2)CC1 (stereo not drawn) [Example 152, 4-[Cyclopropyl-(2-{3-fluoro-4-[(tetrahydro-pyran-2-ylmethyl)-carbamoyl]-phenyl}-pyrimidine-5-carbonyl)-amino]-piperidine-1-carboxylic acid tert-butyl ester] | 109
CC(C)(C)OC(=O)N1CCC(N(C(=O)c2cnc(-c3ccc(C(=O)Nc4ccccc4)c(F)c3)nc2)C2CC2)CC1 [Example 153, 4-{Cyclopropyl-[2-(3-fluoro-4-phenylcarbamoyl-phenyl)-pyrimidine-5-carbonyl]-amino}-piperidine-1-carboxylic acid tert-butyl ester] | 109
CC(C)(O)CNC(=O)c1ccc(-c2ncc(C(=O)N(C3CC3)C3CCN(C(=O)OC(C)(C)C)CC3)cn2)cc1F [Example 154, 4-(Cyclopropyl-{2-[3-fluoro-4-(2-hydroxy-2-methyl-propylcarbamoyl)-phenyl]-pyrimidine-5-carbonyl}-amino)-piperidine-1-carboxylic acid tert-butyl ester] | 508
CC(C)(C)OC(=O)N1CCC(N(C(=O)c2cnc(-c3ccc(C(=O)N4CCOCC4)c(F)c3)nc2)C2CC2)CC1 [Example 155, 4-(Cyclopropyl-{2-[3-fluoro-4-(morpholine-4-carbonyl)-phenyl]-pyrimidine-5-carbonyl}-amino)-piperidine-1-carboxylic acid tert-butyl ester] | 448
COCc1cccc(NC(=O)c2ccc(-c3ncc(C(=O)N(C4CC4)C4CCN(C(=O)OC(C)(C)C)CC4)cn3)cc2F)c1 [Example 156, 4-(Cyclopropyl-{2-[3-fluoro-4-(3-methoxymethyl-phenylcarbamoyl)-phenyl]-pyrimidine-5-carbonyl}-amino)-piperidine-1-carboxylic acid tert-butyl ester] | 114
COC(C)CN(C)C(=O)c1ccc(-c2ncc(C(=O)N(C3CC3)C3CCN(C(=O)OC(C)(C)C)CC3)cn2)c(F)c1 (stereo not drawn) [Example 157, 4-[Cyclopropyl-(2-{2-fluoro-4-[(2-methoxy-propyl)-methyl-carbamoyl]-phenyl}-pyrimidine-5-carbonyl)-amino]-piperidine-1-carboxylic acid tert-butyl ester] | 401
CN(CC1CCOCC1)C(=O)c1ccc(-c2ncc(C(=O)N(C3CC3)C3CCN(C(=O)OC(C)(C)C)CC3)cn2)cc1F [Example 158, 4-[Cyclopropyl-(2-{3-fluoro-4-[methyl-(tetrahydro-pyran-4-ylmethyl)-carbamoyl]-phenyl}-pyrimidine-5-carbonyl)-amino]-piperidine-1-carboxylic acid tert-butyl ester] | 359
COc1ccc(NC(=O)c2ccc(-c3ncc(C(=O)N(C4CC4)C4CCN(C(=O)OC(C)(C)C)CC4)cn3)c(F)c2)cn1 [Example 159, 4-(Cyclopropyl-{2-[2-fluoro-4-(6-methoxy-pyridin-3-ylcarbamoyl)-phenyl]-pyrimidine-5-carbonyl}-amino)-piperidine-1-carboxylic acid tert-butyl ester] | 303
COCCN(C)C(=O)c1ccc(-c2ncc(C(=O)N(C3CC3)C3CCN(C(=O)OC(C)(C)C)CC3)cn2)cc1F [Example 160, 4-[Cyclopropyl-(2-{3-fluoro-4-[(2-methoxy-ethyl)-methyl-carbamoyl]-phenyl}-pyrimidine-5-carbonyl)-amino]-piperidine-1-carboxylic acid tert-butyl ester] | 229
CC(C)(C)OC(=O)N1CCC(N(C(=O)c2cnc(-c3ccc(C(=O)N4CCC[C@@H]4C#N)c(F)c3)nc2)C2CC2)CC1 [Example 161, 4-({2-[4-(2-Cyano-pyrrolidine-1-carbonyl)-3-fluoro-phenyl]-pyrimidine-5-carbonyl}-cyclopropyl-amino)-piperidine-1-carboxylic acid tert-butyl ester] | 278
CC(C)(C)OC(=O)N1CCC(N(C(=O)c2cnc(-c3ccc(C(=O)NCc4cncnc4)c(F)c3)nc2)C2CC2)CC1 [Example 162, 4-[Cyclopropyl-(2-{3-fluoro-4-[(pyrimidin-5-ylmethyl)-carbamoyl]-phenyl}-pyrimidine-5-carbonyl)-amino]-piperidine-1-carboxylic acid tert-butyl ester] | 501
CC(C)(C)OC(=O)N1CCC(N(C(=O)c2cnc(-c3ccc(C(=O)N4CCC(C#N)C4)c(F)c3)nc2)C2CC2)CC1 (stereo not drawn) [Example 163, 4-({2-[4-(3-Cyano-pyrrolidine-1-carbonyl)-3-fluoro-phenyl]-pyrimidine-5-carbonyl}-cyclopropyl-amino)-piperidine-1-carboxylic acid tert-butyl ester] | 405
COC1CCN(C(=O)c2ccc(-c3ncc(C(=O)N(C4CC4)C4CCN(C(=O)OC(C)(C)C)CC4)cn3)cc2F)CC1 [Example 164, 4-(Cyclopropyl-{2-[3-fluoro-4-(4-methoxy-piperidine-1-carbonyl)-phenyl]-pyrimidine-5-carbonyl}-amino)-piperidine-1-carboxylic acid tert-butyl ester] | 221
CC(C)(C)OC(=O)N1CCC(N(C(=O)c2cnc(-c3ccc(C(=O)NCc4cccnc4)c(F)c3)nc2)C2CC2)CC1 [Example 165, 4-[Cyclopropyl-(2-{3-fluoro-4-[(pyridin-3-ylmethyl)-carbamoyl]-phenyl}-pyrimidine-5-carbonyl)-amino]-piperidine-1-carboxylic acid tert-butyl ester] | 173
CN(Cc1cccnc1)C(=O)c1ccc(-c2ncc(C(=O)N(C3CC3)C3CCN(C(=O)OC(C)(C)C)CC3)cn2)c(F)c1 [Example 166, 4-(Cyclopropyl-{2-[2-fluoro-4-(methyl-pyridin-3-ylmethyl-carbamoyl)-phenyl]-pyrimidine-5-carbonyl}-amino)-piperidine-1-carboxylic acid tert-butyl ester] | 359
COCCNC(=O)c1ccc(-c2ncc(C(=O)N(C3CC3)C3CCN(C(=O)OC(C)(C)C)CC3)cn2)cc1F [Example 167, 4-(Cyclopropyl-{2-[3-fluoro-4-(2-methoxy-ethylcarbamoyl)-phenyl]-pyrimidine-5-carbonyl}-amino)-piperidine-1-carboxylic acid tert-butyl ester] | 146
CC(C)(C)OC(=O)N1CCC(N(C(=O)c2cnc(-c3ccc(C(=O)NCCn4ccc(C5CC5)n4)c(F)c3)nc2)C2CC2)CC1 [Example 169, 4-[Cyclopropyl-(2-{4-[2-(3-cyclopropyl-pyrazol-1-yl)-ethylcarbamoyl]-3-fluoro-phenyl}-pyrimidine-5-carbonyl)-amino]-piperidine-1-carboxylic acid tert-butyl ester] | 179
CN(Cc1ccncc1)C(=O)c1ccc(-c2ncc(C(=O)N(C3CC3)C3CCN(C(=O)OC(C)(C)C)CC3)cn2)cc1 [Example 170, 4-(Cyclopropyl-{2-[4-(methyl-pyridin-4-ylmethyl-carbamoyl)-phenyl]-pyrimidine-5-carbonyl}-amino)-piperidine-1-carboxylic acid tert-butyl ester] | 208
CC(C)(C)OC(=O)N1CCC(N(C(=O)c2cnc(-c3ccc(C(=O)NC4CCC(O)CC4)cc3)nc2)C2CC2)CC1 (stereo not drawn) [Example 171, 4-(Cyclopropyl-{2-[4-(4-hydroxy-cyclohexylcarbamoyl)-phenyl]-pyrimidine-5-carbonyl}-amino)-piperidine-1-carboxylic acid tert-butyl ester] | 383
